Experimental data taken from patent US6054441A, “Oxypurine nucleosides and their congeners, and acyl derivatives thereof, for improvement of hematopoiesis” (priority 1995, dated 2000).

How the values were obtained:
[1] = tested on: hematopoietic recovery after cyclophosphamide; experiment: Hematopoietic recovery after cyclophosphamide, acyl chain length (Example 38); assay type: in vivo, Balb/C mice; conditions: day 7; guanosine 5, acyl derivatives 2.5 μmoles/mouse/day i.p.
Experimental: Cyclophosphamide (CP) (275 mg/kg, i.p.) was administered to 70 Balb/C female mice weighing approximately 20 grams each. Twenty-four hours later and each day thereafter for a total of 6 days, mice were given a 0.4 ml i.p injection of either physiological saline (controls), Tween 80 (0.2%), guanosine (5 μmoles/mouse/day in 0.2% Tween 80), or 2.5 μmoles per mouse per day of one of the following acylated derivatives of guanosine in 0.2% Tween 80: triacetylguanosine, octanoylguanosine, lauroylguanosine, or palmitoylguanosine. On day 7 following CP administration all 10 animals from each of the 7 groups were bled, and then sacrificed by cervical dislocation. Spleens were removed and weighed, and complete blood counts performed.

[2] = tested on: hematopoietic recovery after cyclophosphamide; experiment: Hematopoietic recovery after cyclophosphamide (Example 37); assay type: in vivo, Balb/C mice; conditions: 5 μmoles/mouse/day i.p. 6 days; day 7; vs saline
Experimental: Twenty-four hours later and each day thereafter for a total of 6 days, mice were given a 0.4 ml i.p. injection of either physiological saline (controls), guanine (5 μmoles/mouse/day), or guanosine (5 μmoles/mouse/day). On day 7 all 10 mice in each of the three groups were bled, and then sacrificed by cervical dislocation. Spleens were removed and weighed, and complete blood cell counts performed.

[3] = tested on: human myeloid leukemia cell line (HL-60); conditions: HL-60 with inducing agents; cited from earlier work
leukocytes = conditions: 100 mg i.p.; after 10 hours and for 24 hours thereafter; cited from earlier work
[4] = tested on: hematopoietic recovery after cyclophosphamide; experiment: Hematopoietic recovery after cyclophosphamide (Example 59); assay type: in vivo, Balb/C mice; conditions: days 5 and 7; 25 mg/kg/day i.p.
Experimental: Cyclophosphamide (CP) (275 mg/kg, i.p.) was administered to 28 Balb/C female mice weighing approximately 20 grams each. Twenty-four hours later and each day for 4 days thereafter, mice were given a 0.4 ml i.p. injection of either physiological saline (controls) or palmitoyl-8-aminoguanosine (25 mg/kg/day in 0.2% Tween 80). On days 5 and 7 following CP administration 7 animals from each of the 2 groups were bled and then were sacrificed by cervical dislocation. Spleens were removed and weighed, and complete blood cell counts performed.

[5] = tested on: hematopoietic recovery after cyclophosphamide; experiment: Surfactants, hematopoietic recovery after cyclophosphamide (Example 58); assay type: in vivo, Balb/C mice; conditions: day 7
Experimental: Twenty-four hours later and each day thereafter for a total of 6 days, mice were divided into seven groups and given a 0.4 ml i.p. injection of either physiological saline (controls), Tween 80 at each of three concentrations (0.02%, 0.2% and 1%) or octanoylguanosine (50 mg/kg/dose) in three different concentrations of Tween 80 (0.02%, 0.2% and 1%). On day 7 following CP administration all 9 animals from each of the […] were bled and then sacrificed by cervical dislocation. Spleens were removed and weighed, and complete blood cell counts performed.

[6] = tested on: hematopoietic recovery after cyclophosphamide; experiment: Dose-response, hematopoietic recovery after cyclophosphamide (Example 45); assay type: in vivo, Balb/C mice
Experimental: Cyclophosphamide (CP) (275 mg/kg, i.p.) was administered to 45 Balb/C female mice weighing approximately 20 grams each. Twenty-four hours later and each day thereafter for a total of 6 days, mice were given a 0.4 ml i.p. injection of either physiological saline (controls), Tween 80 (0.5%), or one of three different doses of octanoylguanosine ([…]). On day 7 following CP administration all 9 animals from each of the […] were bled and then sacrificed by cervical dislocation. Spleens were removed and weighed, and complete blood cell counts performed.

[7] = tested on: hematopoietic recovery after cyclophosphamide; experiment: Histological examination of spleens and blood counts after cyclophosphamide (Example 46); assay type: in vivo, Balb/C mice; conditions: day 7
Experimental: Cyclophosphamide (CP) (275 mg/kg, i.p.) was administered to 30 Balb/C female mice weighing approximately 20 grams each. Twenty-four hours later and each day thereafter for a total of 6 days, mice were given a 0.4 ml i.p. injection of either physiological saline (controls), Tween 80 (0.5%), or octanoylguanosine (5.0 μmoles/mouse/day in 0.5% Tween 80). On day 7 following CP administration all 10 animals from each of the 3 groups were bled and then sacrificed by cervical dislocation. Spleens were removed, weighed, and fixed in 10% formalin for later histological examination. Complete blood cell counts were performed on the collected blood.

[8] = tested on: Interleukin-3 dependent bone marrow cells; conditions: 10 micrograms per milliliter
Experimental: Bone marrow cells were obtained by flushing the femurs of three male B6D2F1 mice. The cells were plated at 5.0×10^5 /ml in MEM plus 10% fetal calf serum and 25 Units/ml of recombinant IL-3 for 24-48 hours. Non-adherent cells were then separated from adherent cells and maintained for an additional twelve days. IL-3 was washed from cells, and cells were plated in MEM plus 10% fetal calf serum in the presence or absence of IL-3 and with or without the addition of palmitoyldeoxyguanosine (10 micrograms per milliliter) or deoxyguanosine (10 micrograms per milliliter). Cells were counted using the trypan blue exclusion method, and the percent of dead cells (trypan blue positive) was determined at 24, 40, 60 and 84 hours following the wash.

[9] = tested on: hematopoiesis in normal mice; experiment: Hematopoiesis in normal mice (Example 56); assay type: in vivo, Balb/C mice; conditions: day 5, 2.6 μmoles/mouse, 4 days
Experimental: Normal Balb/C female mice weighing approximately 20 grams each were given a daily 0.4 ml i.p. injection of either physiological saline (controls), palmitoylguanosine (2.6 μmoles/mouse), palmitoyldeoxyguanosine (2.6 μmoles/mouse), monopalmitoylguanosine 2',3'-acyclic dialcohol (2.6 μmoles/mouse), and palmitoyl-8-bromoguanosine (2.6 μmoles/mouse) for 4 days. On the fifth day all 3 animals in each of the 5 groups were bled and then sacrificed by cervical dislocation. Spleens were removed and weighed, and complete blood cell counts performed. Femoral bone marrow from each mouse was collected and a differential cell count performed on marrow smears.

[10] = tested on: hematopoietic recovery after cyclophosphamide; experiment: Comparative dose-response, hematopoietic recovery after cyclophosphamide (Example 53); assay type: in vivo, Balb/C mice
Experimental: (§1) Cyclophosphamide (CP) (275 mg/kg, i.p.) was administered to 96 Balb/C female mice weighing approximately 20 grams each. Twenty-four hours later and each day thereafter mice were given a 0.4 ml i.p. injection of either physiological saline (controls), palmitoylguanosine at one of four different doses: 0.2, 0.4, 1.0 or 2.0 μmoles/mouse), or palmitoyldeoxyguanosine at a dose of 1.0 μmoles/mouse. On days 5 and 7 following CP administration 8 animals from each of the 6 groups were bled and then sacrificed by cervical dislocation. Spleens were removed and weighed, and complete blood cell counts performed.

[11] = tested on: hematopoietic recovery from fluorouracil; experiment: Pretreatment, hematopoietic recovery from fluorouracil (Example 57); assay type: in vivo, Balb/C mice
Experimental: Twenty-eight female Balb/C mice weighing approximately 20 grams each received a 0.4 ml i.p. injection of either physiological saline (controls), or palmitoyldeoxyguanosine (1 μmole/mouse) daily for three days. On the fourth day 5-flourouracil (5-FU) (150 mg/kg, i.p.) was administered to all 28 of the animals. On days 5, 8 and 11 following 5-FU administration 4 (day 5) or 5 (days 8 and 11) animals from both groups were bled and then sacrificed by cervical dislocation. Spleens were removed and weighed, and complete blood cell counts performed.

[12] = tested on: hematopoietic recovery after cyclophosphamide; experiment: Dose-response, hematopoietic recovery after cyclophosphamide (Example 54); assay type: in vivo, Balb/C mice
Experimental: Cyclophosphamide (CP) (275 mg/kg, i.p.) was administered to 112 Balb/C female mice weighing approximately 20 grams each. Twenty-four hours later and each day thereafter mice were given a 0.4 ml i.p. injection of either physiological saline (controls), or palmitoyldeoxyguanosine at one of six different doses: 0.04, 0.08, 0.2, 0.4, 0.6 or 0.8 μmoles/mouse. On days 5 and 7 following CP administration 8 animals from each of the 7 groups were bled and then sacrificed by cervical dislocation. Spleens were removed and weighed, and complete blood cell counts performed.

[13] = tested on: hematopoietic recovery after cyclophosphamide; experiment: Recovery of blood cell counts in rats after cyclophosphamide (Example 55); assay type: in vivo, F344 rats
Experimental: Cyclophosphamide (CP) (40 mg/kg, i.p.) was administered to 16 F344 male rats weighing approximately 200 grams each. Twenty-four hours later and each day thereafter rats were given a 0.5 ml i.p. injection of either physiological saline (controls), or palmitoyldeoxyguanosine at a dose of […]. On days 5, 7 and 10 following CP administration all 8 animals from both groups were bled and complete blood cell counts performed. On day 10 all of the rats were sacrificed and their spleens removed and weighed.

[14] = tested on: hematopoietic recovery after cyclophosphamide; experiment: Hematopoietic recovery after cyclophosphamide (Example 51); assay type: in vivo, Balb/C mice; conditions: day 5; 2 μmoles/mouse
Experimental: Cyclophosphamide (CP) (275 mg/kg, i.p.) was administered to 88 Balb/C female mice weighing approximately 20 grams each. Twenty-four hours later and each day thereafter mice were given a 0.4 ml i.p. injection of either Tween-80 (0.2%) (controls), 3'-O-palmitoyldeoxyguanosine (2 μmoles/mouse), butyryldeoxyguanosine (2 μmoles/mouse), palmitoyl-N-isobutyryldeoxyguanosine (2 μmoles/mouse), lauryldeoxyguanosine (2 μmoles/mouse), octanoyldeoxyguanosine (2 μmoles/mouse), and palmitoyldeoxyguanosine (2 μmoles/mouse). On days 5 and 7 following CP administration 6 or 7 animals in each of the 7 groups were bled and then sacrificed by cervical dislocation. Spleens were removed and weighed, and complete blood cell counts performed.

[15] = tested on: hematopoietic recovery after cyclophosphamide; experiment: Dose-response, hematopoietic recovery after cyclophosphamide (Example 52); assay type: in vivo, Balb/C mice; conditions: days 5 and 7; 0.2-2.0 μmoles/mouse, except 0.2 on day 5
Experimental: as §1, with “85” for “96”, “or palmitoyldeoxyguanosine” for “palmitoylguanosine”, “μmoles/mouse).” for “μmoles/mouse), or palmitoyldeoxyguanosine at a dose of 1.0 μmoles/mouse.”, “administration 9 and” for “administration”, “animals, respectively, in” for “animals from”, “5” for “6”

[16] = day 5, palmitoylguanosine 2.0, palmitoyldeoxyguanosine 1.0 μmoles/mouse
[17] = day 7, palmitoylguanosine 1.0 and 2.0, palmitoyldeoxyguanosine 1.0 μmoles/mouse

In the case of `Nc1nc2c(ncn2[C@@H]2O[C@H](CO)[C@@H](O)[C@H]2O)c(=O)[nH]1` [guanosine], the spleen weight [1] was “No significant difference”, the Neutrophils [2] was “significantly more” and the spleen weight [2] was “significantly heavier spleens”. The “total white blood cells” value [2] was “significantly more”, the “effect on induced maturation of HL-60 cells” value [3] was “prevented their induced maturation into functional neutrophils” and the “leukocyte counts, leukocytosis” value (leukocytes) was 11,000 per mm^3.

In the case of `CCCCCCCCCCCCCCCC(=O)OC[C@H]1O[C@@H](n2c(N)nc3c(=O)[nH]c(N)nc32)[C@H](O)[C@@H]1O` [palmitoyl-8-aminoguanosine], the Neutrophils [4] was “significantly elevated” and the spleen weight [4] was “significantly elevated”.

With `CCCCCCCC(=O)OC[C@H]1O[C@@H](n2cnc3c(=O)[nH]c(N)nc32)[C@H](O)[C@@H]1O` the spleen weight [1] was “significantly larger spleens”, the neutrophil counts ([5]; 50 mg/kg in 0.02% and 0.2% Tween 80, vs saline) was “significantly different from controls” and the neutrophil counts ([5]; 50 mg/kg in 0.2% vs in 0.02% Tween 80) was “significantly higher”. The spleen weight ([6]; day 7, 0.5, 2.5 or 5 μmoles/mouse/day, vs controls and Tween 80) was “significantly larger spleens”, the spleen size ([6]; day 7, highest dose (10 μmoles)) was “largest spleens” and the “total number of leukocytes” value ([6]; day 7, vs control) was “significantly increased above control values in a dose-dependent manner”. The “total number of neutrophils” value ([6]; day 7, vs control) was “significantly increased above control values in a dose-dependent manner”, the “accelerating regeneration of hematopoiesis” value ([6]; middle dose 2.5 μmoles) was “nearly as effective as the highest dose” and the spleen weight ([7]; Tween 80 0.5%, octanoylguanosine 5.0 μmoles/mouse/day) was “significantly greater”. For the same molecule, the Neutrophils ([7]; vs control or Tween 80) was “significantly greater numbers”, the “peripheral white blood cells (WBC)” value ([7]; vs control or Tween 80) was “significantly greater numbers” and the “histological examination of spleens” value ([7]; vs saline and Tween 80) was “much greater lymphopoiesis (increased white pulp) and myelopoiesis (increased red pulp)”.

With `CCCCCCCCCCCCCCCC(=O)OC[C@H]1O[C@@H](n2cnc3c(=O)[nH]c(N)nc32)C[C@@H]1O` [palmitoyldeoxyguanosine] the “prevention of apoptotic cell death due to IL-3 deprivation” value [8] was “significantly reduced the percentage of dead cells”, the spleen weight [9] was “significantly elevated” and the number of myelocytes ([9]; femoral bone marrow) was “significantly greater”. For the same molecule, the spleen weight [10, 16] was “significantly elevated”, the total neutrophil counts [10, 16] was “significantly elevated” and the “white blood cell counts” value [10, 16] was “significantly elevated”. The spleen weight [10, 17] was “significantly elevated”, the total neutrophil counts [10, 17] was “significantly elevated” and the “white blood cell counts” value [10, 17] was “significantly elevated”. The “relative potency in elevating spleen weight and cell counts” value ([10]; vs palmitoylguanosine) was “more potent in elevating these parameters than the same or even a 2-fold greater dose of palmitoylguanosine”, the platelet counts ([11]; day 5, 1 μmole/mouse, 3 days before 5-FU) was “significantly elevated” and the platelet counts ([11]; day 8) was “significantly higher”. The spleen weight ([11]; day 8) was “significantly higher”, the total neutrophil counts ([11]; day 8) was “significantly higher” and the lymphocyte counts ([11]; day 11) was “significantly higher”. For the same molecule, the platelet counts ([11]; day 11) was “significantly higher”, the spleen weights ([11]; day 11) was “significantly higher” and the total neutrophil counts ([11]; day 11) was “significantly higher”. For the same molecule, the “total white blood cell counts” value ([11]; day 11) was “significantly higher”, the spleen weight ([12]; day 5, 0.2 μmoles/mouse or greater) was “significantly elevated” and the “white blood cell counts” value ([12]; day 5, 0.4 μmoles/mouse or greater) was “significantly elevated”. For the same molecule, the “white blood cell counts” value ([12]; day 7, all doses) was “statistically significant differences were seen at all doses”, the spleen weight ([12]; day 7, all doses except 0.04 μmoles/mouse) was “significantly elevated” and the total neutrophil counts ([12]; days 5 and 7, all 6 doses) was “significantly elevated”. For the same molecule, the Lymphocytes ([13]; day 10, i.p.) was “significantly elevated”, the Platelets ([13]; day 10, i.p.) was “significantly elevated” and the spleen weight ([13]; day 10, i.p.) was “significantly elevated”. For the same molecule, the total neutrophil counts ([13]; days 5, 7 and 10, i.p.) was “significantly elevated”, the “white blood cell counts” value ([13]; days 5, 7 and 10, i.p.) was “significantly elevated” and the spleen weight [14] was “significantly elevated”. The total neutrophil counts [14] was “significantly elevated”, the “white blood cell counts” value [14] was “significantly elevated” and the spleen weight [15] was “significantly elevated”. For the same molecule, the total neutrophil counts [15] was “significantly elevated” and the “white blood cell counts” value [15] was “significantly elevated”.
